Measurements as given in PMC8037723, “Functional Characterization of an Anthocyanin Dimalonyltransferase in Maize” (Molecules, 2021).

Test system: T1, Aat1
T1 construct: full length, 6x-His-tag in pET-30a(+) (EcoRI/HindIII), E. coli Rosetta-gami 2(DE3)pLysS, Ni-NTA purified
Assay: UHPLC product quantification at […] nm, Michaelis-Menten fit
Format: biochemical, Zea mays
Settings: 100 mM potassium phosphate pH 8.0, 30 °C

[1] = acyl donor, 120 µM cyanidin 3-O-glucoside, donor 5-30 µM
[2] = 60 µM malonyl-CoA, substrate 5-120 µM

Row | SMILES | Km [1] [µM] | Km [2] [µM] | other results
1 | CC(C)(COP(=O)(O)OP(=O)(O)OC[C@H]1O[C@@H](n2cnc3c(N)ncnc32)[C@H](O)[C@@H]1OP(=O)(O)O)[C@@H](O)C(=O)NCCC(=O)NCCSC(=O)CCC(=O)O [Succinyl-CoA] | 60.09 ± 0.02 |  | 
2 | OC[C@H]1O[C@@H](Oc2cc3c(O)cc(O)cc3[o+]c2-c2ccc(O)cc2)[C@H](O)[C@@H](O)[C@@H]1O [Pelargonidin 3-O-Glucoside] |  | 8.92 ± 0.41 | 
3 | CC(C)(COP(=O)(O)OP(=O)(O)OC[C@H]1O[C@@H](n2cnc3c(N)ncnc32)[C@H](O)[C@@H]1OP(=O)(O)O)[C@@H](O)C(=O)NCCC(=O)NCCSC(=O)CC(=O)O [Malonyl-CoA] | 40.12 ± 0.04 |  | 
4 | O=C(O)CC(=O)OC[C@H]1O[C@@H](Oc2cc3c(O)cc(O)cc3[o+]c2-c2ccc(O)c(O)c2)[C@H](O)[C@@H](O)[C@@H]1O [compound 2, Cyanidin 3-O-6”-Malonylglucoside] |  |  | Km (60 µM malonyl-CoA, substrate 2.5-30 µM, semi-preparative fraction of 91.95% purity): 1.33 ± 3.97 µM
5 | OC[C@H]1O[C@@H](Oc2cc3c(O)cc(O)cc3[o+]c2-c2ccc(O)c(O)c2)[C@H](O)[C@@H](O)[C@@H]1O [compound 1, Cyanidin 3-O-Glucoside] |  | 13.1 ± 0.23 | 
6 | COc1cc(-c2[o+]c3cc(O)cc(O)c3cc2O[C@@H]2O[C@H](CO)[C@@H](O)[C@H](O)[C@H]2O)ccc1O [Peonidin 3-O-Glucoside] |  | 5.14 ± 0.93 | 
